Test results from ChEMBL document CHEMBL1145099, “Aloisines, a new family of CDK/GSK-3 inhibitors. SAR study, crystal structure in complex with CDK2, enzyme selectivity, and cellular effects” (J Med Chem, 2003).
pIC50: −log10 of the molar value.

Columns and labels:
[1] = target: Cyclin-dependent kinase 2/cyclin E (Homo sapiens, UniProt P24941); experiment: Inhibition of Cyclin-dependent kinase 2-cyclin E; format: protein-complex assay
Casein kinase I = experiment: Inhibition of Casein kinase I; format: protein assay
Casein kinase II = Casein kinase II (Homo sapiens, UniProt P19784+P67870+P68400); experiment: Inhibition of Casein kinase II; format: protein-complex assay
Sequence of Casein kinase II (P67870 whole entry): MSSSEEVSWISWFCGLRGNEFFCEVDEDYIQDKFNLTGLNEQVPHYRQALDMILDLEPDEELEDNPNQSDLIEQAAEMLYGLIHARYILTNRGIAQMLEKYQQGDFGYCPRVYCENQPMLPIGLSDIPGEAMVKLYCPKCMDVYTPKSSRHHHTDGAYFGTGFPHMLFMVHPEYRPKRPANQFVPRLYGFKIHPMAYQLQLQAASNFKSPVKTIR
Sequence of Casein kinase II (P68400 whole entry): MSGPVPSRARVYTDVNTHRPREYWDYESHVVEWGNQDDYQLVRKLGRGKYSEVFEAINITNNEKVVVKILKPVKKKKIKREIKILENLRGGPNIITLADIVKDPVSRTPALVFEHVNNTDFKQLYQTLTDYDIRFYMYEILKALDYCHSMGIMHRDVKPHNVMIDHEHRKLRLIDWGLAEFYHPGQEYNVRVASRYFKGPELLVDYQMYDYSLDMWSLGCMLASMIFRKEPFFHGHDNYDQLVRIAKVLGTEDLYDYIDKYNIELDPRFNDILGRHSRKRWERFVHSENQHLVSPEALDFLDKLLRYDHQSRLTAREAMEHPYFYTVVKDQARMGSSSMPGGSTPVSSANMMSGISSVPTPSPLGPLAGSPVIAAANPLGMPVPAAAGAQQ
Sequence of Casein kinase II (P19784 whole entry): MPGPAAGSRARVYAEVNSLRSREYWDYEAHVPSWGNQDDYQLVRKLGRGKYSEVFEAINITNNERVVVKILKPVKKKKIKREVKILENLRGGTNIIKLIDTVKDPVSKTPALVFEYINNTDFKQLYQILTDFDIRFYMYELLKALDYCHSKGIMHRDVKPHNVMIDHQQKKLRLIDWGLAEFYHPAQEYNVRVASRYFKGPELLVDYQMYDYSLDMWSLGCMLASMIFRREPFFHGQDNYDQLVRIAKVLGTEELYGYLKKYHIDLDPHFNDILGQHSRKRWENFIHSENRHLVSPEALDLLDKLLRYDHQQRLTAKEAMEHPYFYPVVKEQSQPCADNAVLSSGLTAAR

[2] = target: Cyclin-dependent kinase 2/cyclin A (Homo sapiens, UniProt P24941); experiment: Inhibition of Cyclin-dependent kinase 2-cyclin A; format: protein-complex assay
[3] = target: Cyclin-dependent kinase 4/cyclin D1 (Homo sapiens, UniProt P11802); experiment: Inhibition of Cyclin-dependent kinase 4-cyclin D1
Sequence of Cyclin-dependent kinase 4/cyclin D1 (P11802 whole entry): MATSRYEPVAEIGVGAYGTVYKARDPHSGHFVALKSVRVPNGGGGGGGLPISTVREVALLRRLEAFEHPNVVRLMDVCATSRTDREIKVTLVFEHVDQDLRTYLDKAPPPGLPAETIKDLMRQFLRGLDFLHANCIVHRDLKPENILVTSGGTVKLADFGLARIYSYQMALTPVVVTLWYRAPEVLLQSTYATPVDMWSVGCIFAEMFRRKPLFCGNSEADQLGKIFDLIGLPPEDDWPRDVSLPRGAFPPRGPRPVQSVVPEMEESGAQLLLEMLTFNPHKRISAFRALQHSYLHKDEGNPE
Sequence of Cyclin-dependent kinase 4/cyclin D1 (P24385 whole entry, further chain): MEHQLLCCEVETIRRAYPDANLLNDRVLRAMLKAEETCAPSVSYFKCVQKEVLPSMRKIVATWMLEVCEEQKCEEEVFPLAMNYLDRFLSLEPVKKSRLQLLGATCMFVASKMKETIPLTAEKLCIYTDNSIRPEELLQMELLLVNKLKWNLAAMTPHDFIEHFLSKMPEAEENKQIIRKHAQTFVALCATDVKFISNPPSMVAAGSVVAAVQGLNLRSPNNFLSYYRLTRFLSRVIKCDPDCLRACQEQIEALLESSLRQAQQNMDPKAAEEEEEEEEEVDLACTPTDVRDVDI

[4] = target: Dual specificity mitogen-activated protein kinase kinase; MEK1/2 (Homo sapiens, UniProt P36507+Q02750); experiment: Inhibition of Mitogen activated protein kinase kinase; format: protein assay
[5] = target: Protein kinase C beta type (Homo sapiens, UniProt P05771); experiment: Inhibition of Protein kinase C beta
Sequence of Protein kinase C beta type (P05771 whole entry): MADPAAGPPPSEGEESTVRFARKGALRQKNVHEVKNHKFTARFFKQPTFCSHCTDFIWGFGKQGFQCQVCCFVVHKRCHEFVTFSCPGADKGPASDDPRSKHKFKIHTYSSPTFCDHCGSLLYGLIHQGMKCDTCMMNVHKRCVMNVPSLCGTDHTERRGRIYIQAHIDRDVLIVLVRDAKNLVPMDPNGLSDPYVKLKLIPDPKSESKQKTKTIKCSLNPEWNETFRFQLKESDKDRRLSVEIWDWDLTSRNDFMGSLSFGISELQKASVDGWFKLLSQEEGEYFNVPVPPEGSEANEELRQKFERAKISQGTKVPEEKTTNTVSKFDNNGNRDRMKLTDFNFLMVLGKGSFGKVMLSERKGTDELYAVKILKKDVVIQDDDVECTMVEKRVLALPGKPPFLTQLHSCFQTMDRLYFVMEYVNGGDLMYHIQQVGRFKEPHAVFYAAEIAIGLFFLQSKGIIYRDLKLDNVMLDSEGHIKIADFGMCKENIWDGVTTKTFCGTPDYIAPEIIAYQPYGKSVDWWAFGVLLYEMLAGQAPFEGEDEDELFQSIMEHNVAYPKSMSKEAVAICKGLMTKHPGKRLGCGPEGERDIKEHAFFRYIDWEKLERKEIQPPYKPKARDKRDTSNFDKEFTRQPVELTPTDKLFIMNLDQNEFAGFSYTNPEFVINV

[6] = target: Protein kinase C alpha type (Homo sapiens, UniProt P17252); experiment: Inhibition of protein kinase C alpha
[7] = target: Protein kinase C delta type (Homo sapiens, UniProt Q05655); experiment: Inhibition of protein kinase C delta
Sequence of Protein kinase C delta type (Q05655 whole entry): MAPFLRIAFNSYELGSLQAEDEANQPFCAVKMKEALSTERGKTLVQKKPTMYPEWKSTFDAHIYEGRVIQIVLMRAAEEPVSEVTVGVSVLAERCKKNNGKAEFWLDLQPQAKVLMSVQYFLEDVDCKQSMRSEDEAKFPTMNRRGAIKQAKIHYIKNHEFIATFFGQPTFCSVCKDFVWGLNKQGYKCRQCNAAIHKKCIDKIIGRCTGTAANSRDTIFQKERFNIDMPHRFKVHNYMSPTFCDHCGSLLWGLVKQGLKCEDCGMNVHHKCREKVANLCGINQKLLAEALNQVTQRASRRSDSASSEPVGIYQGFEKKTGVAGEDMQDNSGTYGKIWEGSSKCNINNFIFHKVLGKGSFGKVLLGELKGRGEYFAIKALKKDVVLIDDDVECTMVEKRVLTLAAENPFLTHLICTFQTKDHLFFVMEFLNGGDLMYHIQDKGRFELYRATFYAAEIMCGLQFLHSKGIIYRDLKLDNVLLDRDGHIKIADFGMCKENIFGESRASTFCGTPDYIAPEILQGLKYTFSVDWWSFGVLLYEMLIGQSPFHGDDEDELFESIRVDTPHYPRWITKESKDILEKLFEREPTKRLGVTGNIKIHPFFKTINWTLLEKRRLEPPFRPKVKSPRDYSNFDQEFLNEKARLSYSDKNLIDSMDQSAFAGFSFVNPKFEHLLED

[8] = target: Serine/threonine-protein kinase pim-1 (Homo sapiens, UniProt P11309); experiment: Inhibition of Protein kinase PIM-1
Sequence of Serine/threonine-protein kinase pim-1 (P11309 whole entry): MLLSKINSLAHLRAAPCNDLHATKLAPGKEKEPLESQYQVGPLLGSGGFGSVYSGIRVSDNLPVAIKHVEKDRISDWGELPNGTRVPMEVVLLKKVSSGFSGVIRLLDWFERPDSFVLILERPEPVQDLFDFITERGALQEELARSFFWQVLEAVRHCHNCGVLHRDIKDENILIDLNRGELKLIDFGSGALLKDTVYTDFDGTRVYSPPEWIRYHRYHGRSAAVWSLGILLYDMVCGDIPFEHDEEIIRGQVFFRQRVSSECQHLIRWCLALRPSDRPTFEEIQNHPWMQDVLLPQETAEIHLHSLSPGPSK

[9] = target: T1, Protein kinase C zeta type (Homo sapiens, UniProt Q05513); experiment: Inhibition of protein kinase C zeta
T1 sequence (Q05513 whole entry): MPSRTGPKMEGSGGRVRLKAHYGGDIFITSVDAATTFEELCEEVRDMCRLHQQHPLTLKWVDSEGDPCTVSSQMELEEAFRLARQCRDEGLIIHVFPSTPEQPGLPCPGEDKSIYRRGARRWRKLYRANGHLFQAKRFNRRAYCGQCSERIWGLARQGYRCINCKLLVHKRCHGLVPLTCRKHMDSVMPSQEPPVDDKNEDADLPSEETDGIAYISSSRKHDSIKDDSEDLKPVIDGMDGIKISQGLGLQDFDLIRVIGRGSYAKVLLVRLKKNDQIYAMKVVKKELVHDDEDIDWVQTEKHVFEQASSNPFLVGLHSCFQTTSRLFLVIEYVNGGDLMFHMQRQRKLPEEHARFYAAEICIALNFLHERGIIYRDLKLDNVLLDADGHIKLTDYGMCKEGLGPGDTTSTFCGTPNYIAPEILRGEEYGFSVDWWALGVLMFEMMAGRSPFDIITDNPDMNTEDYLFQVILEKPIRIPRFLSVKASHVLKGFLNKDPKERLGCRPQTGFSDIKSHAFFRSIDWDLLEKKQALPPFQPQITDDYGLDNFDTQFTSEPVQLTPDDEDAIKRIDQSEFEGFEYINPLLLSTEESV

[10] = target: T2, Protein kinase C epsilon type (Homo sapiens, UniProt Q02156); experiment: Inhibition of protein kinase C epsilon
T2 sequence (Q02156 whole entry): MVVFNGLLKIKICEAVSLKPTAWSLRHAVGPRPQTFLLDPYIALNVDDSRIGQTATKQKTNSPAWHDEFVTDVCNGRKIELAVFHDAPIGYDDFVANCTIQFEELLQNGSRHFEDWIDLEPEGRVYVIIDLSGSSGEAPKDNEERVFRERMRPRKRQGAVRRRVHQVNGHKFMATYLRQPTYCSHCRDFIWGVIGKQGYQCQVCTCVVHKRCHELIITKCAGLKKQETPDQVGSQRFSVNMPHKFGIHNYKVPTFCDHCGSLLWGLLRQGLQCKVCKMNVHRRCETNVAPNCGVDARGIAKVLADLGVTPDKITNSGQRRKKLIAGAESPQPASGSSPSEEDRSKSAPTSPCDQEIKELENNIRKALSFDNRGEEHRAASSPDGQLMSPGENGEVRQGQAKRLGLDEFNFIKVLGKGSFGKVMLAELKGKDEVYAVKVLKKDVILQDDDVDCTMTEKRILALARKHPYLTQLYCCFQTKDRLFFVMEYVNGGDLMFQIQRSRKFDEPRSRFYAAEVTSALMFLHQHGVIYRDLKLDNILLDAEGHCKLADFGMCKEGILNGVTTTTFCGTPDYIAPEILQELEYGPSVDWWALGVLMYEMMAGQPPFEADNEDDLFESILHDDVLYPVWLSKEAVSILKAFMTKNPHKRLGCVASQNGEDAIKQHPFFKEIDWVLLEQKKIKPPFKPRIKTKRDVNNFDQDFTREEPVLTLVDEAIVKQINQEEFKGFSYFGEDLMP

[11] = target: Protein kinase C gamma type (Homo sapiens, UniProt P05129); experiment: Inhibition of Protein kinase C gamma
[12] = target: T3, Serine/threonine-protein kinase D1 (Homo sapiens, UniProt Q15139); experiment: Inhibition of Protein kinase C mu
T3 sequence (Q15139 whole entry): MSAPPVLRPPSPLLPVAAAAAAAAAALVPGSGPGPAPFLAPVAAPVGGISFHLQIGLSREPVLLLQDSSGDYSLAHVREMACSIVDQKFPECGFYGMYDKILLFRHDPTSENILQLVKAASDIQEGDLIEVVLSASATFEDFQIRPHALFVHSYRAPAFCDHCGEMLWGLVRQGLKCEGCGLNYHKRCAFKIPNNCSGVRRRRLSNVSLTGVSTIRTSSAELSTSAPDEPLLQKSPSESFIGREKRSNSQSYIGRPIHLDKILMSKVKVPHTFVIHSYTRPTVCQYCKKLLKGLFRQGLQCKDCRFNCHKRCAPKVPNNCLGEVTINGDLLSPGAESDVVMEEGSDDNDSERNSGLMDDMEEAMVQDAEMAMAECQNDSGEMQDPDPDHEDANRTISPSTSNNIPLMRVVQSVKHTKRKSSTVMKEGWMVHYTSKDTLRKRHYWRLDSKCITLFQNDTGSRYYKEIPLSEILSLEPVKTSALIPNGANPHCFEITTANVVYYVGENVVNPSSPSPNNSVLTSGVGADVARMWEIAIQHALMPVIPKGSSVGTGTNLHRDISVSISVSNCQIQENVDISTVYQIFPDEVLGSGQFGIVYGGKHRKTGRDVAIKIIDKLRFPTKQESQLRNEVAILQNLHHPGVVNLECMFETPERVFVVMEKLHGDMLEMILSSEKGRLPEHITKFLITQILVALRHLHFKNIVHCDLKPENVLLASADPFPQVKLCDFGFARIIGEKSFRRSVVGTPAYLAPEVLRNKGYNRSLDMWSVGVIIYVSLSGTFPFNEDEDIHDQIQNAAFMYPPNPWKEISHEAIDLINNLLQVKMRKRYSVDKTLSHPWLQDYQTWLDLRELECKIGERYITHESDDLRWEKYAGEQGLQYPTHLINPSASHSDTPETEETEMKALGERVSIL

[13] = target: RAF proto-oncogene serine/threonine-protein kinase (Homo sapiens, UniProt P04049); experiment: Inhibition of RAF proto-oncogene serine/threonine-protein kinase (c-raf)
Sequence of RAF proto-oncogene serine/threonine-protein kinase (P04049 whole entry): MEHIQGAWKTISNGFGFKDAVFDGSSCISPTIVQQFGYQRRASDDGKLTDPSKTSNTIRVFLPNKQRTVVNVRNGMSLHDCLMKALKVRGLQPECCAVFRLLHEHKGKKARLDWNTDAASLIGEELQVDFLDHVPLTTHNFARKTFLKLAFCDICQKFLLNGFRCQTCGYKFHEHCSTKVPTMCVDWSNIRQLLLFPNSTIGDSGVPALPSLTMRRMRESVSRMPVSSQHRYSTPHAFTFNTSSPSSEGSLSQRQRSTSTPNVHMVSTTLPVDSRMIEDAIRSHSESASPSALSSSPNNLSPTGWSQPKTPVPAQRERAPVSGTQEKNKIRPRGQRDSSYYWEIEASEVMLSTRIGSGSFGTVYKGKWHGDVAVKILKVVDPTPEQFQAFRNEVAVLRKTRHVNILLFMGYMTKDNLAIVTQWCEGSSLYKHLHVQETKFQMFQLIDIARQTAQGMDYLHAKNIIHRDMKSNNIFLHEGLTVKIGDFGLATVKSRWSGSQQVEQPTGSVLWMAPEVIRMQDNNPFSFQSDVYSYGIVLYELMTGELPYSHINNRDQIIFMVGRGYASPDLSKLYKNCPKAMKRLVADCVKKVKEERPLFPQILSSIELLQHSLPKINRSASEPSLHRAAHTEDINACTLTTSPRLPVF

[14] = target: c-Jun N-terminal kinase, JNK (Homo sapiens, UniProt P45983+P53779+P45984); experiment: Inhibition of c-Jun N-terminal kinase; format: protein assay
[15] = Inhibition of cAMP dependent protein kinase, PKA
[16] = Inhibition of cGMP-dependent protein kinase

- pIC50 [1]: 6.40
- IC50 (Casein kinase I): > 100 µM
- pIC50 (Casein kinase II): < 4.00
- pIC50 [2]: 6.92
- pIC50 [3]: < 4.00
- IC50 [4]: > 100 µM
- pIC50 [5]: < 4.00
- pIC50 [6]: < 4.00
- pIC50 [7]: < 4.00
- pIC50 [8]: < 5.00
- pIC50 [9]: < 4.00
- pIC50 [10]: < 4.00
- pIC50 [11]: < 4.00
- pIC50 [12]: < 4.00
- pIC50 [13]: < 4.00
- IC50 [14]: 3.3 µM
- pIC50 [15]: 4.00
- pIC50 [16]: 4.00
SMILES: CCCCc1c(-c2ccc(O)cc2)[nH]c2nccnc12 [ALOISINE A]
